According to publication PMC9000570, “Thiazole/Thiadiazole/Benzothiazole Based Thiazolidin-4-One Derivatives as Potential Inhibitors of Main Protease of SARS-CoV-2” (Molecules, 2022):

Columns and labels:
[1] = target: SARS-CoV-2 3CL protease (Severe acute respiratory syndrome coronavirus 2, UniProt P0DTD1); test: biochemical; type: biochemical; conditions: for IC50: dose range 0.005 to 50 µM
[2] = system: feline infectious peritonitis; conditions: upon treatment of FIP in cats; cited from earlier work
[3] = system: human normal MRC-5 cells; test: MTT cell viability assay; type: cell-based; conditions: 48 h

Compound	IC50 [1]	inhibition at 50 µM ([1]; 50 μM compound)	inhibition of cellular viability ([3]; MRC-5, 0.01 μM)	inhibition of cellular viability ([3]; MRC-5, 0.1 μM)	inhibition of cellular viability ([3]; MRC-5, 1 μM)	inhibition of cellular viability ([3]; MRC-5, 10 μM)	also measured
3-(5,6-dichlorobenzo[d]thiazol-2-yl)-2-(4-fluorophenyl)thiazolidin-4-one [a3]	> 50 µM	–	–	–	–	–	% Inhibition at 50 μM ([1]; 50 μM compound): 0%
CC(C)CC(NC(=O)OCc1ccccc1)C(=O)NC(CC1CCNC1=O)C(O)S(=O)(=O)O (stereo not drawn) [GC376]	–	–	–	–	–	–	side effects [2]: subcutaneous fibrosis, transient stinging at the injection sites, hair loss, and abnormal eruption of permanent teeth in juvenile cats
O=C1CSC(c2c(F)cccc2F)N1c1nc2cccc(Cl)c2s1 (stereo not drawn) [a1]	> 50 µM	0%	–	–	–	–	–
O=C1CSC(c2c(F)cccc2Cl)N1c1nc2cccc(Cl)c2s1 (stereo not drawn) [a2]	–	91.3%	68.5%	78.4%	95.5%	100%	–
O=C1CSC(c2ccc(F)cc2)N1c1nc2ccc(F)cc2s1 (stereo not drawn) [b1]	> 50 µM	0%	–	–	–	–	–
O=C1CSC(c2ccc(F)cc2)N1c1nc2ccc(Cl)cc2s1 (stereo not drawn) [c1]	4.74 µM	88%	31.0%	43,0%	36.1%	80.3%	–
O=C1CSC(c2ccc(O)cc2)N1c1nc2ccc(Cl)cc2s1 (stereo not drawn) [c5]	> 50 µM	7.87%	–	–	–	–	inhibitory activity on main protease (in words) [1]: inactive
O=C1CSC(c2ccc(F)cc2)N1c1nc2c(Cl)cccc2s1 (stereo not drawn) [d1]	> 50 µM	6.72%	–	–	–	–	–
COc1cccc2sc(N3C(=O)CSC3c3ccc([N+](=O)[O-])cc3)nc12 (stereo not drawn) [e2]	> 50 µM	31.3%	–	–	–	–	–
O=C1CSC(c2ccc(F)cc2)N1c1nc2ccc(OC(F)(F)F)cc2s1 (stereo not drawn) [h6]	> 50 µM	25.2%	–	–	–	–	–
O=C1CSC(c2ccc(Cl)cc2)N1c1nc2ccc(OC(F)(F)F)cc2s1 (stereo not drawn) [h8]	> 50 µM	3.04%	–	–	–	–	–
N#Cc1ccc2nc(N3C(=O)CSC3c3c(F)cccc3Cl)sc2c1 (stereo not drawn) [k3]	0.01 µM	100%	57%	64%	100%	100%	–
O=C1CSC(c2c(F)cccc2Cl)N1c1nc2ccc(C34CC5CC(CC(C5)C3)C4)cc2s1 (stereo not drawn) [m2]	> 50 µM	2.79%	–	–	–	–	–
O=C1CSC(c2ccc(Br)cc2)N1c1nc2ccc(C34CC5CC(CC(C5)C3)C4)cc2s1 (stereo not drawn) [m11, 3-(6-(adamantan-1-yl)benzo[d]thiazol-2-yl)-2-(4-bromophenyl)thiazolidin-4-one]	> 50 µM	45%	65.0%	81.3%	89.4%	100%	inhibitory activity on main protease (in words) [1]: moderate activity; melting point: 275 to 276 °C
Cc1cc(C23CC4CC(CC(C4)C2)C3)cc2sc(N3C(=O)CSC3c3c(F)cccc3F)nc12 (stereo not drawn) [n2]	9.98 µM	100%	20.8%	73.4%	90.7%	100%	–
